Measurements from US20050019836A1, “Bioanalytical reagent, method for production thereof, sensor platforms and detection methods based on use of said bioanalytical reagent” (priority 2000, published 2005).
Values belong to the compound of their own block, whether it stands above or below them.

Columns and labels:
5HT3A receptor [1] = target: T1, 5HT3A receptor (Mus musculus, UniProt P23979); assay: fluorescent ligand binding to surface-immobilized "native" vesicles (confocal fluorescence microscopy); conditions: individual discrete immobilized vesicles (n=3) from HEK293 cells; fit with Langmuir isotherm; read-out: dissociation constant Kd
T1 construct: Transient expression of the full wild-type receptor was achieved by co-transfection; expressed in transfected cells; host or cells: HEK293
T1 sequence (P23979 24-489): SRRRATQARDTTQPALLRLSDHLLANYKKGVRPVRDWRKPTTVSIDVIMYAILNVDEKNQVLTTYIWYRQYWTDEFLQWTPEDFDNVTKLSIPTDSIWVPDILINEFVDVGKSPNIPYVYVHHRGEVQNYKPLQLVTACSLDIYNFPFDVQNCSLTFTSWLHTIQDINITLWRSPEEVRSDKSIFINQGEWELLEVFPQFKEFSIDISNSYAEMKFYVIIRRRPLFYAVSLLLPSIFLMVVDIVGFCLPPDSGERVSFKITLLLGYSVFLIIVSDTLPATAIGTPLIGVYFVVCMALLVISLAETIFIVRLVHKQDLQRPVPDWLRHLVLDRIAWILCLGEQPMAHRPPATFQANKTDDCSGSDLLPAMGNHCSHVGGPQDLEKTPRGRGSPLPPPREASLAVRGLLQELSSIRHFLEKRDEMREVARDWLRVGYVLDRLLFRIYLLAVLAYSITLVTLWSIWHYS
Method: The ligand-binding experiments in surface-immobilized vesicles were carried out using the fluorescence-labeled ligand GR-Cy5. For these experiments, a homologous serotonin receptor construct 5HT3A was used that was expressed with an EGFP (Enhanced Green Fluorescent Protein, Clontech) fused at the end of a subunit. The prepared “native” vesicles were immobilized on cover glasses by means of physical adsorption of the vesicles to the glasses, by two-hour or overnight incubation of typically 400 μl of a vesicle preparation solution prepared according to the above method in 6-well plates with cover glasses on the bottom at 4° C. […]
The affinity of the fluorescent ligand for receptors bound to individual, discrete vesicles was determined by sequential addition of ascending concentrations of the fluorescent ligand to one and the same cover glass with vesicles immobilized thereon by overnight incubation. […]
The fluorescence intensities of the ligand were measured with a confocal fluorescence microscope (Zeiss, Laser Scanning Microscope LSM510), using a suitable filter set. The fluorescence signal of the GFP additionally incorporated into the vesicles was used in each case to adjust the microscope to the working distance of the plane in which the vesicles lay before the ligand was added. […]

5HT3A receptor [2] = target: T1, 5HT3A receptor; assay: competitive radiological binding assay with [3H]-GR65630, receptor in whole mother cells
5HT3A receptor [3] = target: T1, 5HT3A receptor; assay: competitive radiological binding assay with [3H]-GR65630, receptor in "native" vesicles in solution
Method: To this end, samples of said reagent were incubated with the vesicles in solution for 60 minutes at room temperature with 1.5 nM of the tritium-labeled ligand [^3H]-GR65630 in 240 μl HEPES buffer (10 mM HEPES, pH 7.4) (HEPES: 4-(2-hydroxyethyl)piperazine-1-ethanesulfonic acid) in 96-well MultiScreen plates (Millipore, F-Molsheim). The incubation was completed by rapid filtration followed by washing 3 times with 300 μl of ice-cold HEPES buffer each time. The filters were transferred to scintillation vessels and each taken up in 1 ml of Ultima Gold TM (Packard, meridan, USA). The radioactivity was measured using a TriCarb 2200CA liquid scintillation counter. The extent of nonspecific binding to the receptor and to the vesicles was estimated in the presence of a high surplus of quipazine (1 μM). The dissociation constant Kd was determined from Scatchard plots in 6 different concentrations of the ligand [^3H]-GR65630. […] All experiments were carried out in duplicate.

5HT3A serotonin receptor = target: T2, 5HT3A serotonin receptor (Mus musculus, UniProt P23979); assay: agonist-induced calcium signal (Fluo-3) in "native" vesicles with incorporated 5HT3A receptor; assay type: cell-based; conditions: 350 μM agonist; Fluo-3 loaded vesicles
T2 construct: expressed in transfected cells; host or cells: HEK cells
T2 sequence (P23979 24-489): T1 sequence (P23979 24-489)
Method: In this case, the original HEK cells from which the vesicles were obtained following the addition of cytochalasin according to the method described hereinabove were loaded with the acetoxymethyl ester of Fluo-3 as calcium indicator (generally 20 μg Fluo-3 in 500 μl DMEM/F12 medium). The prepared vesicles contained said fluorescent calcium indicator and parts of the endoplasmic reticulum in addition to the 5HT3A receptor.
Fluorescence excitation of the Fluo-3 was performed at 488 nm. The emission was measured at 500-530 nm. The vesicles loaded with Fluo-3 were then stimulated with 350 μM m-chlorophenylbiguanide hydrochloride (mCPG), a receptor-specific agonist. Stimulation was performed by addition of the agonist to the vesicle medium (t=0 sec). The maximum fluorescence signal that occurred through binding of the calcium to the calcium indicator Fluo-3 was already measured less than one minute after addition of the agonist. The value amounted to 35 μM free calcium ions in the vesicle interior, i.e. in the cytosol surrounded by the vesicle. With the aid of calcium indicator Fluo-3, free calcium ions are detected only in the cytosol (vesicle lumen) transferred from the cell of origin. Calcium ions in the endoplasmic reticulum or in other cell organelles or parts of cell organelles possibly included in the vesicle are not determined by this detection method.
The increase in the fluorescence signal up to its maximum value after less than one minute and the subsequent decrease in the fluorescence signal to its baseline value after a further 2 minutes, i.e. after a total of 3 minutes following addition of the agonist, is a sign of the intact functional capacity of the complete mechanism of the signal transduction cascade within the vesicle, i.e. of the ability of the vesicle to “buffer” the concentration of free calcium ions. This includes the action of sodium-calcium exchangers, in addition to the timespan until closure of the receptor's ion channel and desensitization mechanisms characteristic of serotonin.

[4] = HEK293 mother cells, competition with 1.5 nM [3H]-GR65630, 60 min, room temperature, read-out: pKi, receptor in mother cell (converted)
[5] = vesicles from HEK293 cells in solution, competition with 1.5 nM [3H]-GR65630, 60 min, room temperature, read-out: pKi, receptor in "native" vesicles (converted)
[6] = HEK293 mother cells, competition with 1.5 nM [3H]-GR65630, 60 min, room temperature
[7] = vesicles from HEK293 cells in solution, competition with 1.5 nM [3H]-GR65630, 60 min, room temperature

- Ki (5HT3A receptor [2]): 3.16 nM
- Ki (5HT3A receptor [3]): 2.51 nM
Compound: Cc1nccn1CC1CCc2c(c3ccccc3n2C)C1=O (stereo not shown) [Ondansetron, 1,2,3,9-tetrahydro-9-methyl-3-[(2-methyl-1H-imidazol-1-yl)methyl]-4H-carbazol-4-one]

- Ki (5HT3A receptor [2]; [4]): 316 nM
- Ki (5HT3A receptor [3]; [5]): 251 nM
Compound: N=C(N)NC(=N)Nc1ccccc1 [PBG, Phenylbiguanide]

- Ki (5HT3A receptor [2]; [4]): 0.501 nM
- Ki (5HT3A receptor [3]; [5]): 0.398 nM
Compound: c1ccc2nc(N3CCNCC3)ccc2c1 [Quipazine, 2-(1-Piperazinyl)quinoline]

Second part, the compound before the results:

Compound: 1,2,3,9-tetrahydro-3-[(5-methyl-1H-imidazol-4-yl)methyl]-9-(3-amino-(N-rhodamineB-thiocarbamoyl)-propyl)-4H-carbazol-4-one [GR-Rho]
- Kd (5HT3A receptor [1]): 4.2 nM

Compound: Cc1[nH]cnc1CC1CCc2c(c3ccccc3n2CCCN)C1=O (stereo not shown) [GR-H]
- Ki (5HT3A receptor [2]): 0.0631 nM
- Ki (5HT3A receptor [3]): 0.2 nM

Compound: Cc1[nH]cnc1CCC(=O)c1cn(C)c2ccccc12 [[^3H]-GR65630]
- pKi, receptor in mother cell (5HT3A receptor [2]; [6]): 9.0 ± 0.1
- pKi, receptor in "native" vesicles (5HT3A receptor [3]; [7]): 9.4 ± 0.1

Compound: N=C(N)NC(=N)Nc1cccc(Cl)c1 [mCPBG, m-Chlorophenylbiguanide]
- pKi, receptor in mother cell (5HT3A receptor [2]; [6]): 8.2 ± 0.1
- pKi, receptor in "native" vesicles (5HT3A receptor [3]; [7]): 8.3 ± 0.1

Compound: Cl.N=C(N)NC(=N)Nc1cccc(Cl)c1 [mCPG, m-chlorophenylbiguanide hydrochloride]
- free calcium ions in the vesicle interior at maximum fluorescence signal (5HT3A serotonin receptor): 35 µM
- time to maximum fluorescence signal after addition of the agonist (5HT3A serotonin receptor): less than one
- total time until decrease of fluorescence signal to baseline value after addition of the agonist (5HT3A serotonin receptor): 3 min
